In patent US11603373B2, “TDO2 and IDO1 inhibitors” (Genentech, Inc., priority 2017, dated 2023):

Legend:
[1] = target: T1, TDO2 (SW48 cells, high TDO expressing cells) (Homo sapiens, UniProt P48775); test: NFK GreenScreen cell assay, inhibition of TDO in SW48 cells; type: cell-based; conditions: read-out: TDO2 Cell Fluor EC50
T1 construct: SW48 cells (high TDO expressing cells); endogenous in cells; host or cells: SW48 cells
From the text: (§1) Cells are counted on a Vi-Cell (Beckman Coulter). […] The final DMSO concentration is 0.5%.

[2] = target: T2, IDO1 (A172+IFNg cells, high IDO expressing cells) (Homo sapiens, UniProt P14902); test: NFK GreenScreen cell assay, inhibition of IDO in A172+IFNg cells; type: cell-based; conditions: read-out: IDO cell Fluor EC50
T2 construct: A172+IFNg cells (high IDO expressing cells); endogenous in cells; host or cells: A172 cells induced with 100 ng/ml IFNγ
T2 sequence (P14902 whole entry): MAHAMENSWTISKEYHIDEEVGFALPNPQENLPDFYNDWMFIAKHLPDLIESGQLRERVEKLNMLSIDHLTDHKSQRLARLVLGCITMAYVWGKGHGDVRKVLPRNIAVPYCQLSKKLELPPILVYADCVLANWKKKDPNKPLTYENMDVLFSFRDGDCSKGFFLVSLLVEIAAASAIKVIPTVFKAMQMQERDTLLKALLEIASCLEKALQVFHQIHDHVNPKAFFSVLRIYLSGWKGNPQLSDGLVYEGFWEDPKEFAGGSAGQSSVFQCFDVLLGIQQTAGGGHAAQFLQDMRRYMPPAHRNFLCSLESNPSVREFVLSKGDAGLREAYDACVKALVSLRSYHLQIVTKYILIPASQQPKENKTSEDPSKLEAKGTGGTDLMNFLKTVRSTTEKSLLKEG
From the text: as §1

T1 sequence (P48775 whole entry): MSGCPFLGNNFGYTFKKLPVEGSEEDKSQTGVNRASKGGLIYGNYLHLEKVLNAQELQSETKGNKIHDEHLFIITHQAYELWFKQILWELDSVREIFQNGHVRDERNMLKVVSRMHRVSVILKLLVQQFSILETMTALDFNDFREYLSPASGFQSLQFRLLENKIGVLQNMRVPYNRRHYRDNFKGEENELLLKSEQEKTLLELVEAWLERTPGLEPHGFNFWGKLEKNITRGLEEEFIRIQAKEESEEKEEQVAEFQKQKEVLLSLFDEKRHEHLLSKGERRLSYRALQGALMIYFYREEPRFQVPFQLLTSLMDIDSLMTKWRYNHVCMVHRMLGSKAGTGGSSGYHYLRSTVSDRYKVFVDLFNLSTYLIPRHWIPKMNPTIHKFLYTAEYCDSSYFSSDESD

| SMILES | EC50 [1] [nM] | EC50 [2] [nM] |
| --- | --- | --- |
| CCC(=O)N1CCC2(CC1)CC(C1c3ccccc3-c3cncn31)C2O (centres unmarked) [compound 49, 1-[3-hydroxy-2-(5H-imidazo[1,5-b]isoindol-5-yl)-7-azaspiro[3.5]nonan-7-yl]propan-1-one] | 530 | 560 |
| CN(C)C(=O)CCC(=O)N1CCC2(CC1)CC(C1c3ccccc3-c3cncn31)C2O (centres unmarked) [compound 50, 4-[3-hydroxy-2-(5H-imidazo[1,5-b]isoindol-5-yl)-7-azaspiro[3.5]nonan-7-yl]-N,N-dimethyl-4-oxo-butanamide] | 1300 | 1500 |
| O=C(CC1CCOCC1)N1CCC2(CC1)CC(C1c3ccccc3-c3cncn31)C2O (centres unmarked) [compound 51, 1-[3-hydroxy-2-(5H-imidazo[1,5-b]isoindol-5-yl)-7-azaspiro[3.5]nonan-7-yl]-2-tetrahydropyran-4-yl-ethanone] | 220 | 390 |
| O=C(CN1CCCC1=O)N1CCC2(CC1)C[C@@H]([C@H]1c3ccccc3-c3cncn31)[C@H]2O [compound 52, 1-[2-[3-hydroxy-2-(5H-imidazo[1,5-b]isoindol-5-yl)-7-azaspiro[3.5]nonan-7-yl]-2-oxo-ethyl]pyrrolidin-2-one] | 3700 | 3900 |
| CN1CC(C(=O)N2CCC3(CC2)CC(C2c4ccccc4-c4cncn42)C3O)CC1=O (centres unmarked) [compound 53, 4-[3-hydroxy-2-(5H-imidazo[1,5-b]isoindol-5-yl)-7-azaspiro[3.5]nonane-7-carbonyl]-1-methyl-pyrrolidin-2-one] | 9900 | 6700 |
| Cc1cc(CC(=O)N2CCC3(CC2)C[C@@H]([C@H]2c4ccccc4-c4cncn42)[C@H]3O)no1 [compound 54, 1-[3-hydroxy-2-(5H-imidazo[1,5-b]isoindol-5-yl)-7-azaspiro[3.5]nonan-7-yl]-2-(5-methylisoxazol-3-yl)ethanone] | 370 | 240 |
| Cn1cc(CCC(=O)N2CCC3(CC2)C[C@@H]([C@H]2c4ccccc4-c4cncn42)[C@H]3O)cn1 [compound 55, 1-[3-hydroxy-2-(5H-imidazo[1,5-b]isoindol-5-yl)-7-azaspiro[3.5]nonan-7-yl]-3-(1-methylpyrazol-4-yl)propan-1-one] | 810 | 510 |
| CC(=O)N1CCC2(CC1)C[C@@H]([C@H]1c3ccccc3-c3cncn31)[C@H]2O [compound 56, 1-[3-hydroxy-2-(5H-imidazo[1,5-b]isoindol-5-yl)-7-azaspiro[3.5]nonan-7-yl]ethanone] | 790 | 660 |
| O=C(OCC(F)F)N1CCC2(CC1)C[C@@H]([C@H]1c3ccccc3-c3cncn31)[C@H]2O [compound 57, 2,2-difluoroethyl (2S,3R)-3-hydroxy-2-[(5S)-5H-imidazo[1,5-b]isoindol-5-yl]-7-azaspiro[3.5]nonane-7-carboxylate] | 260 | 87 |
| O=C(NCC(F)F)N1CCC2(CC1)C[C@@H]([C@H]1c3ccccc3-c3cncn31)[C@H]2O [compound 58, N-(2,2-difluoroethyl)-3-hydroxy-2-(5H-imidazo[1,5-b]isoindol-5-yl)-7-azaspiro[3.5]nonane-7-carboxamide] | 340 | 350 |
| N#CC1(C(=O)N2CCC3(CC2)C[C@@H]([C@H]2c4ccccc4-c4cncn42)[C@H]3O)CC1 [compound 61, 1-[3-hydroxy-2-(5H-imidazo[1,5-b]isoindol-5-yl)-7-azaspiro[3.5]nonan-7-carbonyl]cyclopropanecarbonitrile] | 470 | 120 |
| Cc1cc(CC(=O)N2CCC3(CC2)CC(C2c4ccccc4-c4cncn42)C3O)on1 (centres unmarked) [compound 63, 1-[3-hydroxy-2-(5H-imidazo[1,5-b]isoindol-5-yl)-7-azaspiro[3.5]nonan-7-yl]-2-(3-methylisoxazol-5-yl)ethanone] | 310 | 160 |
| NC(=O)N1CCCC(C(=O)N2CCC3(CC2)CC(C2c4ccccc4-c4cncn42)C3O)C1 (centres unmarked) [compound 64, 3-[3-hydroxy-2-(5H-imidazo[1,5-b]isoindol-5-yl)-7-azaspiro[3.5]nonane-7-carbonyl]piperidine-1-carboxamide] | 13000 | 17000 |
